Experimental data: the supplement of paper PMC8671470

Legend:
Test in all cases: cell viability (% survival relative to DMSO control, bortezomib = 0%); higher = less cytotoxic
Conditions in all cases: 72 h
[1] = system: NOMO-1
How it was run: (§1)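 Reported values are percent survival from duplicate wells, averaged. Fifteen myeloid leukaemia cell lines were treated in 384-well plates with compounds at 1, 10, 100, 1000 or 10000 nM for 72 h at 37 °C in 5% CO2. Signals from CellTiter-Glo luminescence were scaled with vehicle as 100% and a 10 µM positive control as 0%.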

[2] = system: KCL-22
How it was run: as §1

[3] = system: LAMA-84
How it was run: as §1

[4] = system: HEL
How it was run: as §1

SMILES | cell viability ([1]; 1 nM) [%] | cell viability ([1]; 10 nM) [%] | cell viability ([1]; 100 nM) [%] | cell viability ([1]; 1000 nM) [%] | cell viability ([1]; 10000 nM) [%] | cell viability ([2]; 1 nM) [%] | cell viability ([2]; 10 nM) [%] | cell viability ([2]; 100 nM) [%] | cell viability ([2]; 1000 nM) [%] | cell viability ([2]; 10000 nM) [%] | cell viability ([3]; 1 nM) [%] | cell viability ([3]; 10 nM) [%] | cell viability ([3]; 100 nM) [%] | cell viability ([3]; 1000 nM) [%] | cell viability ([3]; 10000 nM) [%] | cell viability ([4]; 1 nM) [%] | cell viability ([4]; 10 nM) [%] | cell viability ([4]; 100 nM) [%] | cell viability ([4]; 1000 nM) [%] | cell viability ([4]; 10000 nM) [%]
Nc1ncnc2c1ncn2[C@@H]1O[C@H](CSCC[C@H](N)C(=O)O)[C@@H](O)[C@H]1O [S-Adenosyl Homocysteine] | 101 | 104 | 103 | 98.1 | 104 | 97.5 | 113 | 98.5 | 94.5 | 102 | 105 | 110 | 100 | 99.4 | 103 | 108 | 114 | 104 | 101 | 113
C[C@]12O[C@H](C[C@]1(O)CO)n1c3ccccc3c3c4c(c5c6ccccc6n2c5c31)CNC4=O [Lestaurtinib] | 100 | 92.3 | 68.1 | 9.73 | 0.0124 | 104 | 91 | 59.6 | 21.8 | 1.08 | 99.6 | 94.4 | 34.2 | 25 | 0.148 | 95.5 | 90.4 | 33.2 | 19.1 | 4.54
O=C(O)CCc1ccc(NCc2cccc(Oc3ccccc3)c2)cc1 [GW9508] | 92.8 | 96.6 | 108 | 108 | 104 | 101 | 89.5 | 89.6 | 102 | 93.4 | 96.8 | 98.6 | 108 | 93.2 | 106 | 112 | 105 | 101 | 109 | 104
CC(/C=C1\SC(=S)N(CC(=O)O)C1=O)=C\c1ccccc1 [Epalrestat] | 108 | 101 | 93.4 | 102 | 103 | 106 | 99.8 | 100 | 101 | 102 | 104 | 99.8 | 82.6 | 104 | 99.8 | 120 | 94.8 | 99.5 | 95.5 | 112
C[C@H]1O[C@@H](O[C@H]2[C@@H](O)C[C@H](O[C@H]3[C@@H](O)C[C@H](O[C@H]4CC[C@@]5(C)[C@H](CC[C@@H]6[C@@H]5C[C@@H](O)[C@]5(C)[C@@H](C7=CC(=O)OC7)CC[C@]65O)C4)O[C@@H]3C)O[C@@H]2C)C[C@H](O)[C@@H]1O [Digoxin] | 97.9 | 105 | 60.3 | -0.211 | -0.0253 | 99.1 | 95.3 | 25 | 0.788 | 0.361 | 92.3 | 115 | 20.6 | 2.17 | 2.06 | 97.3 | 92.9 | 49 | -0.296 | -0.0735
OCCN1CCN(CCCN2c3ccccc3Sc3ccc(Cl)cc32)CC1 [Perphenazine] | 112 | 93.1 | 106 | 108 | 56.9 | 122 | 107 | 102 | 111 | 39.6 | 105 | 103 | 93.5 | 97.2 | 47.6 | 120 | 107 | 90.1 | 108 | 107
